# T1: human IAP (Homo sapiens, UniProt P09923)
# T1 construct: made in house; host or cells: COS-1 cells, transient expression from pCMV-Script; conditioned serum-free medium used as enzyme stock
# T1 sequence (P09923 20-503 limits assumed): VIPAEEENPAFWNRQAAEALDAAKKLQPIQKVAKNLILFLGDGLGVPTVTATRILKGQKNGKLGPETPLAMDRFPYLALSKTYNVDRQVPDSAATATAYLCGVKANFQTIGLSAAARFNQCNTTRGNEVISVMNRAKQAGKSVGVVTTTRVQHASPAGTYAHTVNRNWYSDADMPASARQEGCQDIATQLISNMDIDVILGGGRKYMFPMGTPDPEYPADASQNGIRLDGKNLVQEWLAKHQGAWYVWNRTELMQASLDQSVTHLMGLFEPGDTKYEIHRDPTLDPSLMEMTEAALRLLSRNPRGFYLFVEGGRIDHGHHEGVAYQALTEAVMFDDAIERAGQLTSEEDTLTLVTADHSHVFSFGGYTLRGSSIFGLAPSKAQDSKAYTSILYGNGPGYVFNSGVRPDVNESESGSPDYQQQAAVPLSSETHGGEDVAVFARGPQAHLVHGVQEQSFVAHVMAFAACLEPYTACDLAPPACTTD
# Tests used:
# human IAP = molecular target: T1, human IAP; assay: IAP assay using CDP-Star (chemiluminescent, dose response); format: biochemical; details: IAP modulators, Tables A-H, positive = inhibitor; for IC50: negative Hill coefficient = activator; for n (Hill coefficient): negative = activator
# Description: An expression vector pCMV-Script containing cDNA for human IAP, TNAP, PLAP, GCAP, mouse TNAP, dIAP, EAP or gIAP in secreted form (FLAG-tagged) is transfected into COS-1 cells for transient expression using a standard electroporation method. The GPI anchoring site is replaced by a FLAG sequence to make the proteins secreted into the media as well as to test their kinetics in a form immobilized by anti-FLAG antibody (Narisawa, et al, 2007). Medium is changed to serum free medium Opti-MEM (Invitrogen) 24 h later, and media containing secreted proteins was collected 66 hr after electroporation. Conditioned medium filtered by a 2 μm cellulose acetate membrane is supplemented with 0.1% BSA, aliquotted and stored at −80° C.
# Human IAP is produced on a large scale to be used in the primary high throughput screening. For a maximum of 200,000 wells including a blank and negative control in each plate, approximately 1600 ml of the recombinant human IAP working solution (8 μl/well×200,000) is used. The working solution is a 1:80 dilution of the stock solution that has AP activity showing ΔOD405 (velocity) ˜300 in 5 min pNPP calorimetric assay. Therefore a minimum of 20 ml of the stock solution (1600÷80) is needed. An enzyme stock is prepared from ten 15 cm φ plates of COS-1 cells using 100 μg plasmid DNA [ten plates×(10 μg DNA/1×10^7 cells per 15 cm φ plate)].
# Compound aliquots (4 μL at […] in 10% DMSO) are added to 8 μL of human IAP working solution of a the human IAP stock solution diluted 1:80 in assay buffer (250 mM DEA, pH 9.8, −2.5 mM MgCl2, −0.05 μM ZnCl2). The solution of substrate CDP-Star, disodium 2-chloro-5-(4-methoxyspiro{1,2-dioxetane-3,2′(5′-chloro)-tricyclo[3.3.1.1]3,7 decan}-4-yl)-1-phenyl phosphate (New England Biolabs), (8 μL of 125 μM in water) is added to each well. […] Dispensing of human IAP working solution and CDP-Star is processed using a WellMate bulk dispenser (Matrix). Plates (white 384-well small volume Greiner 784075) are incubated at room temperature for 30 min, and the luminescence signal is measured using a PerkinElmer EnVision multi-mode plate reader. L-Phenylalanine (1 mM final concentration) and 2% DMSO is utilized as an inhibition control and blank, respectively. Data analysis is processed using CBIS software (ChemInnovations, Inc).
# The compound is diluted ([…] to 0.03 mM) and incubated with the human IAP enzyme for 30 min prior to addition of substrate. At the same time, human TNAP, human PLAP, human GCAP, mouse TNAP, mouse dIAP, mouse EAP and mouse gIAP is tested to determine enzyme specificity.
# [1] = Kinetic parameters of recombinant mouse dIAP, gIAP and EAP using p-NPP as substrate; format: biochemical
# Description: The epithelium of the mouse small intestine expresses two intestine specific AP genes, Akp3 and Akp6, and low levels of Akp5, which is not intestine specific (Narisawa, et al, 2007). AP proteins encoded by Akp3, Akp5 and Akp6 were designated duodenal IAP or dIAP, embryonic AP or EAP and global IAP or gIAP, respectively.
# [2] = p-NPP as substrate, pH 9.8, means ± SD
Molecule,IC50 (human IAP) [µM],n (Hill coefficient) (human IAP),"Km [1, 2] [µM]","kcat [1, 2] [s⁻¹]","Km ([1]; pNPP assay, recombinant enzyme, repeated in text) [µM]"
"Cn1nc(C(=O)O)cc1-c1ccc(F)cc1 [Compound D2, 5-(4-fluorophenyl)-1-methyl 1H-pyrazole-3 carboxylic acid]",> 100,,,,
"O=C(CSc1nnc[nH]1)NCCOc1ccccc1 [Compound H1, 2-(4H-1,2,4-triazol-3-ylthio)-N-(2-phenoxyethyl)acetamide]",> 100,,,,
"CC(OC(=O)c1cc(-c2ccc(Br)cc2)[nH]n1)C(=O)NC(C)(C)C (stereo not drawn) [Compound A13, 1-(tert-butylamino)-l-oxopropan-2-yl 5-(4-bromophenyl)-1H-pyrazole-3-carboxylate]",93.4,−1,,,
"O=C1C2CC=CCC2C(=O)N1c1nc(-c2ccco2)n[nH]1 (centres unmarked) [Compound F6, 2-[3-(furan-2-yl)-1H-1,2,4-triazol-5-yl]-3a,4,7,7a-tetrahydro-1H-isoindole-1,3(2H)-dione]",0.411,0.894,,,
"dIAP: recombinant mouse duodenal intestinal alkaline phosphatase encoded by Akp3 (protein, UniProt P24822 20-528, looked up) Intestinal-type alkaline …: VIPVEEENPAFWNKKAAEALDAAKKLQPIQTSAKNLIIFLGDGMGVPTVTATRILKGQLEGHLGPETPLAMDRFPYMALSKTYSVDRQVPDSASTATAYLCGVKTNYKTIGLSAAARFDQCNTTFGNEVFSVMYRAKKAGKSVGVVTTTRVQHASPSGTYVHTVNRNWYGDADMPASALREGCKDIATQLISNMDINVILGGGRKYMFPAGTPDPEYPNDANETGTRLDGRNLVQEWLSKHQGSQYVWNREQLIQKAQDPSVTYLMGLFEPVDTKFDIQRDPLMDPSLKDMTETAVKVLSRNPKGFYLFVEGGRIDRGHHLGTAYLALTEAVMFDLAIERASQLTSERDTLTIVTADHSHVFSFGGYTLRGTSIFGLAPLNALDGKPYTSILYGNGPGYVGTGERPNVTAAESSGSSYRRQAAVPVKSETHGGEDVAIFARGPQAHLVHGVQEQNYIAHVMASAGCLEPYTDCGLAPPADESQTTTTTRQTTITTTTTTTTTTTTPVHN",,,1100 ± 340,339 ± 13,1100 ± 340
"EAP: recombinant mouse embryonic alkaline phosphatase encoded by Akp5 (protein, UniProt P24823 19-502, looked up) Alkaline phosphatase, germ …: VIPVEEENPAFWNRKAAEALDAAKKLKPIQTSAKNLVILMGDGMGVSTVTATRILKGQQQGHLGPETQLAMDRFPHMALSKTYNTDKQIPDSAGTGTAFLCGVKTNMKVIGLSAAARFNQCNTTWGNEVVSVMHRAKKAGKSVGVVTTTSVQHASPAGTYAHTVNRGWYSDAQMPASALQDGCKDISTQLISNMDIDVILGGGRKFMFPKGTPDQEYPTDTKQAGTRLDGRNLVQEWLAKHQGARYVWNRSELIQASLNRSVTHLMGLFEPNDMKYEIHRDPAQDPSLAEMTEVAVRMLSRNPKGFYLFVEGGRIDHGHHETVAYRALTEAVMFDSAVDKADKLTSEQDTMILVTADHSHVFSFGGYTQRGASIFGLAPFKAEDGKSFTSILYGNGPGYKLHNGARADVTEEESSNPTYQQQAAVPLSSETHSGEDVAIFARGPQAHLVHGVQEQNYIAHVMAFAACLEPYTDCGLASPAGQSS",,,140 ± 30,8.4 ± 1.1,
